System: tonic extensor seizure
Assay: maximal electroshock test (MES)
Type: in vivo, mouse (albino male CRS-CD1)
Conditions: mouse, PO, at 4 hr
Experimental: The compounds of formula (I) are particularly useful as anticonvulsant agents in mammals including humans. The anticonvulsant activity of the subject compounds was determined using a standard "maximal electroshock test" (MES). In this test, activity is indicated by a block of the […] extensor seizure caused by application of an electric shock to mice via corneal electrodes, as described by Swinyard et al. in J. Pharmacol. Expt. Ther. 1952, 106, 319, and recorded as % block. A more recent description of current anticonvulsant drug screening is given by Swinyard in Epilepsia 1978, 19, 409. The anticonvulsant activity of the compounds of this invention tested according to the Swinyard 1952 method is shown in the following Table I.
In the test, albino male CRS-CD1 mice weighing between 18-25 g were used in all experiments (obtained from Charles River). They were allowed food and water ad libitum and were used only once. The electroshock apparatus and the corneal electrodes were purchased from Wahlquist Instrument Company, Salt Lake City, Utah.
Maximal electroshock seizures were induced by the delivery of a 60 Hertz (Hz) current of 50 milliamps (mA) intensity to the mouse through corneal electrodes for 0.2 seconds as originally described by Swinyard et al. (1952). This stimulus intensity is approximately 4 to 6 times the current producing 100% tonic extensor convulsions. During the validation of the MES test, the duration of the various seizure components following maximal electroshock were measured as follows: hindleg tonic flexion was measured from the time of the application of the stimulus to the time of onset of hindleg tonic extension (i.e. when the hindlegs deviate by greater than an angle of 90° from the torso), hindleg tonic extensor was measured from the time of extensor thrust to the onset of generalized clonus, and terminal clonus was measured from the beginning to the end of bilateral rhythmic clonic jerking. Mortality was also recorded. The duration of each seizure component agreed well with the values previously reported by Tedeschi et al. in J. Pharmacol. Expt. Ther. 1955, 116, 107. The corneal electrodes were concave so that saline could be applied to the electrodes to reduce mortality. If this procedure is followed, mortality should always be less than 40% in control mice. Thus, at an electroshock stimulus of 60 Hz, 50 mA and 0.2 seconds duration, the order of convulsive components and the percentage of control animals displaying the behaviors should be as follows: tonic flexion (100%), tonic extension (100%) and clonus (100%) with less than 40% mortality.
For testing compounds, the abolition of the tonic extensor component was the endpoint. Animals were dosed orally (PO) with either vehicle or test drug and at a specified time were given a maximal electric shock through corneal electrodes blotted with saline (as described above). A minimum of 10 animals were used per group and the percentage of animals in the group without tonic hindlimb extension recorded. Determination of ED50 values (that dose of drug inhibiting 50% of the tonic extensor seizures) is shown below in Table I.

Compound `CC1(C)O[C@H]2[C@@H]3OS(=O)(=O)O[C@@H]3CO[C@@]2(COS(N)(=O)=O)O1` [Example 1, 2,3-O-(1-Methylethylidene)-4,5-O-sulfonyl-β-D-fructopyranose Sulfamate] has an ED50 of 6.3 mg/kg.

Source: patent US5242942A, “Anticonvulsant fructopyranose cyclic sulfites and sulfates” (McNeilab, Inc., priority 1992, dated 1993)
